Source: patent US12721800B2, “Phosphonates and N-halamines compositions for tartar removal” (O.Y.M. INNOVATION LTD., priority 2021, dated 2026)

What was measured:
[1] = Effect of SUTP, poly(StBP) NPs and γ-Glu-BP on human teeth (incubation, brushing, overnight re-incubation); conditions: for precipitate of tartar during incubation: 1 mg/ml aqueous solution, 4 ml, pH=4, RT, after 15 min of incubation; for cleaning of teeth from tartar (photographs): 1 mg/ml, pH=4, RT 1 hr, brushing, new solution overnight, washed with DDW
Experimental: The effect of SUTP (Example 1), poly(StBP) NPs (Example 4), and γ-Glu-BP (Example 2) on human teeth was evaluated as followed:
Teeth were incubated in three separate aqueous solutions of: SUTP, poly(StBP) NPs, and γ-Glu-BP (1 mg/ml, 4 ml, pH=4) at RT for 1 hr. […] The teeth were then brushed by a toothbrush to remove the remain tartar layer on the teeth and were incubated in new solutions of SUTP, poly(StBP) NPs, and γ-Glu-BP overnight. Then, the teeth were washed by DDW and were photographed.

[2] = Effect of halamine NPs and SUTP on mature tartar removal on human teeth (10 min stirring, then brushing)
Experimental: The effect of halamines nanoparticles (as presented in Table 1) and SUTP compounds on mature tartar removal on human teeth were studied. 5 mL of each aqueous suspension were added to a 20 mL vial, and a tooth with tartar was added to each vial. Then, the solutions were stirred for 10 min at room temperature. After 10 minutes the teeth were brushed using a soft toothbrush and a photo of the tooth were taken.

[3] = Comparison of succinyl tetraphosphonate and two industrial pyrophosphates on human teeth having mature tartar; conditions: for mature tartar removal (images before and after treatment): 1 mg/ml in PBS, pH=7, 5 ml, shaken 10 min, then brushed 2 min
Experimental: The effect of succinyl tetraphosphonate and two types of industrial pyrophosphates on human teeth having mature tartar as were evaluated as followed:
Human teeth were incubated and shaken in 5 ml solution of PBS with SUTP ((a) see structure below), sodium pyrophosphate tetrabasic ((b) see structure below) and sodium pyrophosphate dibasic ((c) see structure below) (1 mg/ml, pH=7) for 10 min. Then, the teeth were brushed by a toothbrush for 2 min. Images were captured before and after treatment FIG. 6 (with SUTP), FIG. 7 (with sodium pyrophosphate tetrabasic), and FIG. 8 (with sodium pyrophosphate dibasic).

| Compound | precipitate of tartar during incubation [1] | cleaning of teeth from tartar (photographs) [1] | tartar removal from tooth ([2]; 1 mg/mL, pH 3-4, 10 min stirring and brushing) | tartar removal from tooth ([2]; 1 mg/mL, pH 6-7, 10 min stirring and brushing) | tartar removal from tooth ([2]; 10 mg/mL, pH 3-4, 10 min stirring and brushing) | mature tartar removal (images before and after treatment) [3] | cloudiness of the solution after the teeth brushing (tartar removed from the teeth) ([3]; 1 mg/ml, solution captured after teeth brushing) |
| --- | --- | --- | --- | --- | --- | --- | --- |
| O=P(O)(O)C(O)(CCC(O)(P(=O)(O)O)P(=O)(O)O)P(=O)(O)O [SUTP, Succinyl tetra phosphonate] | a new precipitate of tartar was observed spontaneously | cleaning of dirty teeth from tartar | partially clean | partially clean | completely clean | a significant mature tartar was removed | significantly cloudier than the others |
| O=P([O-])(O)OP(=O)([O-])O.[Na+].[Na+] [Sodium pyrophosphate dibasic, sodium pyrophosphate dibasic, reference compound] | – | – | – | – | – | did not remove the mature tartar | – |
| O=P([O-])([O-])OP(=O)([O-])[O-].[Na+].[Na+].[Na+].[Na+] [Sodium pyrophosphate tetrabasic, sodium pyrophosphate tetrabasic, reference compound] | – | – | – | – | – | did not remove the mature tartar | – |
| NC(CCC(O)(P(=O)(O)O)P(=O)(O)O)C(=O)O (centres unmarked) [γ-Glu-BP] | a new precipitate of tartar was observed spontaneously | cleaning of dirty teeth from tartar | – | – | – | – | – |
